The test deals with patients with symptoms of UAB syndrome. Briefly: Treatment of patients with symptoms of UAB syndrome with cevimeline (Qmax, PVR, UAB symptom questionnaire). It is filed as in vivo, human. To be noted: for UAB Score: five-question UAB symptom questionnaire, lower score = improvement; for UAB Score / PVR (residual urine volume in the bladder) / Qmax (maximum urine flow rate): individual patients. The text has this:
Six different patients who each suffered from one or more medical conditions and symptoms of UAB syndrome were examined. UAB symptom-related data obtained from the patients before and after treatment with cevimeline was obtained from some of the patients and is presented below in Tables I-IV. […] Quantitative measurements were made to determine maximum urine flow rate Qmax (expressed in mL/s) and residual urine volume in the bladder PVR (expressed in mL). Qualitative measurements were obtained based on the patient's perceived UAB symptoms. A lower UAB score indicates an improvement in UAB symptoms. […] 4 and 6 after one week of treatment with cevimeline. Cevimeline was administered to each patient in 30 mg doses, three times per day. […] Specifically, the volume of residual urine in the bladder of patient 6 decreased from a baseline volume of 120 mL to a treated volume of 28 mL. To assess for qualitative improvement of UAB symptoms upon administration of cevimeline, patients were surveyed using a five-question UAB symptom questionnaire. The UAB score was then tallied from the patient responses. […] 4 and 6 after a two-week treatment with cevimeline. Cevimeline was administered to each patient in 60 mg doses, three times per day.

Setting [1] is: after one week of treatment with cevimeline 30 mg tid.
[2] abbreviates: after two weeks of treatment with cevimeline 60 mg tid.

Experimental findings from patent US20170333407A1, “METHOD FOR TREATING UNDERACTIVE BLADDER SYNDROME” (William Beaumont Hospital, priority 2014, published 2017) are described below.

“And” between values parts separate entries of the source, which are not always exact repeats. Equal entries are not always repeated. “Also recorded” adds a separate entry of the source.

Turning to `C[C@@H]1O[C@@]2(CS1)CN1CCC2CC1` [cevimeline, (2R,5R)-2-methylspiro[1,3-oxathiolane-5,3′-1-azabicyclo[2.2.2]octane]], under setting [1], the “UAB Score” value is 12 and 9 (2×); the “PVR (residual urine volume in the bladder)” value is 28 mL and 240 mL; the “Qmax (maximum urine flow rate)” value was 2.9 mL/s and 3 mL/s. Moreover, the “improvement in UAB symptoms (in words)” value (after one week, 30 mg three times per day, patient 4 and patient 6) is recorded as “did not demonstrate any quantitative or qualitative improvement; also recorded: did show quantitative improvement”. Under setting [2], the “UAB Score” value is listed as 7; the “PVR (residual urine volume in the bladder)” value was 92 mL and 69 mL; the “Qmax (maximum urine flow rate)” value was 9.5 mL/s and 9.9 mL/s. In addition, the “improvement of UAB syndrome-related symptoms (in words)” value (after two-week treatment, 60 mg three times per day, patient 4 and patient 6) is “demonstrated both quantitative and qualitative improvements”. For the same compound, the “overall effect on symptoms related to UAB syndrome (in words)” value (initial data from preliminary studies) is “effective at treating the symptoms related to UAB syndrome”.
